Results as given in ChEMBL document CHEMBL1144507, “Synthesis and antifungal activity of (Z)-5-arylidenerhodanines” (2007).
In brackets after ≈: the same amount, converted by molar mass.

Columns and labels:
Nannizzia gypsea = test: Antifungal activity against Microsporum gypseum C115 after 48 hrs; type: functional
Trichophyton rubrum = test: Antifungal activity against Trichophyton rubrum C113 after 48 hrs; type: functional
Trichophyton benhamiae [1] = test: Antifungal activity against Trichophyton mentagrophytes ATCC 9972 after 48 hrs; type: functional, Arthroderma benhamiae; settings: ATCC 9972, 48 h
Candida albicans [2] = test: Antifungal activity against Candida albicans C125-2000 after 48 hrs; type: functional
Candida albicans [3] = test: Antifungal activity against Candida albicans C126-2000 after 48 hrs; type: functional
Candida albicans [4] = test: Antifungal activity against Candida albicans C127-2000 after 48 hrs; type: functional
Candida albicans [5] = test: Antifungal activity against Candida albicans C128-2000 after 48 hrs; type: functional
Candida albicans [6] = test: Antifungal activity against Candida albicans ATCC 10231 after 48 hrs; type: functional; settings: ATCC 10231, 48 h
Saccharomyces cerevisiae = test: Antifungal activity against Saccharomyces cerevisiae ATCC 9763 after 48 hrs; type: functional; settings: ATCC 9763, 48 h
Cryptococcus neoformans [7] = test: Antifungal activity against Cryptococcus neoformans ATCC 32264 after 48 hrs; type: functional; settings: ATCC 32264, 48 h
Aspergillus niger = test: Antifungal activity against Aspergillus niger ATCC 9029 after 48 hrs; type: functional; settings: ATCC 9029, 48 h
Aspergillus fumigatus = test: Antifungal activity against Aspergillus fumigatus ATCC 26934 after 48 hrs; type: functional; settings: ATCC 26934, 48 h
Aspergillus flavus = test: Antifungal activity against Aspergillus flavus ATCC 9170 after 48 hrs; type: functional; settings: ATCC 9170, 48 h
Candida albicans [8] = test: Antifungal activity against Candida albicans C129-2000 after 48 hrs; type: functional
Candida albicans [9] = test: Antifungal activity against Candida albicans C130-2000 after 48 hrs; type: functional
Nakaseomyces glabratus = test: Antifungal activity against Candida glabrata C115-2000 after 48 hrs; type: functional
Candida parapsilosis = test: Antifungal activity against Candida parapsilosis C124-2000 after 48 hrs; type: functional; settings: Lodderomyces parapsilosis
Clavispora lusitaniae = test: Antifungal activity against Candida lusitaniae C131-2000 after 48 hrs; type: functional
Torulaspora delbrueckii = test: Antifungal activity against Candida coliculosa C122-2000 after 48 hrs; type: functional
Pichia kudriavzevii = test: Antifungal activity against Candida krusei C117-2000 after 48 hrs; type: functional
Kluyveromyces marxianus = test: Antifungal activity against Candida kefyr C123-2000 after 48 hrs; type: functional
Candida tropicalis = test: Antifungal activity against Candida tropicalis C131-1997 after 48 hrs; type: functional
Cryptococcus neoformans [10] = test: Antifungal activity against […] ATCC 32264 after 48 hrs; type: functional; settings: ATCC 32264, 48 h
Cryptococcus neoformans [11] = test: Antifungal activity against Candida neoformans IM 983040 after 48 hrs; type: functional
Cryptococcus neoformans [12] = test: Antifungal activity against […] IM 972724 after 48 hrs; type: functional
Cryptococcus neoformans [13] = test: Antifungal activity against […] IM 042074 after 48 hrs; type: functional
Cryptococcus neoformans [14] = test: Antifungal activity against […] IM 983036 after 48 hrs; type: functional
Cryptococcus neoformans [15] = test: Antifungal activity against […] IM 00319 after 48 hrs; type: functional
Cryptococcus neoformans [16] = test: Antifungal activity against […] IM 972751 after 48 hrs; type: functional
Cryptococcus neoformans [17] = test: Antifungal activity against […] IM 031631 after 48 hrs; type: functional; settings: Cryptococcus neoformans, 48 h; for MFC: read-out: MFC
Cryptococcus neoformans [18] = test: Antifungal activity against […] IM 031706 after 48 hrs; type: functional
Cryptococcus neoformans [19] = test: Antifungal activity against […] IM 961951 after 48 hrs; type: functional
Cryptococcus neoformans [20] = test: Antifungal activity against […] IM 052470 after 48 hrs; type: functional
Trichophyton benhamiae [21] = test: Antifungal activity against Trichophyton mentagrophytes C108 after 48 hrs; type: functional, Arthroderma benhamiae
Trichophyton benhamiae [22] = test: Antifungal activity against Trichophyton mentagrophytes C364 after 48 hrs; type: functional, Arthroderma benhamiae
Trichophyton benhamiae [23] = test: Antifungal activity against Trichophyton mentagrophytes C539 after 48 hrs; type: functional, Arthroderma benhamiae
Trichophyton benhamiae [24] = test: Antifungal activity against Trichophyton mentagrophytes C738 after 48 hrs; type: functional, Arthroderma benhamiae
Trichophyton benhamiae [25] = test: Antifungal activity against Trichophyton mentagrophytes C943 after 48 hrs; type: functional, Arthroderma benhamiae

## O=C1NC(=S)S/C1=C\c1ccc(C(F)(F)F)cc1
Nannizzia gypsea
  MIC: 15.6 µg/mL (≈ 53.9 µM)
Trichophyton rubrum
  MIC: 15.6 µg/mL (≈ 53.9 µM)
Trichophyton benhamiae [1]
  MIC: 3.9 µg/mL (≈ 13.5 µM)
Candida albicans [2]
  MFC: 62.5 µg/mL (≈ 216 µM)
  MIC: 31.2 µg/mL (≈ 108 µM)
  MIC50: 15.6 µg/mL (≈ 53.9 µM)
  MIC80: 31.2 µg/mL (≈ 108 µM)
Candida albicans [3]
  MFC: 31.2 µg/mL (≈ 108 µM)
  MIC: 15.6 µg/mL (≈ 53.9 µM)
  MIC50: 15.6 µg/mL (≈ 53.9 µM)
  MIC80: 15.6 µg/mL (≈ 53.9 µM)
Candida albicans [4]
  MFC: 31.2 µg/mL (≈ 108 µM)
  MIC: 15.6 µg/mL (≈ 53.9 µM)
  MIC50: 7.8 µg/mL (≈ 27 µM)
  MIC80: 15.6 µg/mL (≈ 53.9 µM)
Candida albicans [5]
  MFC: 31.2 µg/mL (≈ 108 µM)
  MIC: 15.6 µg/mL (≈ 53.9 µM)
  MIC50: 15.6 µg/mL (≈ 53.9 µM)
  MIC80: 15.6 µg/mL (≈ 53.9 µM)
Candida albicans [6]
  MIC: 15.6 µg/mL (≈ 53.9 µM)
Saccharomyces cerevisiae
  MIC: 15.6 µg/mL (≈ 53.9 µM)
Cryptococcus neoformans [7]
  MIC: 3.9 µg/mL (≈ 13.5 µM)
Aspergillus niger
  MIC: 62.5 µg/mL (≈ 216 µM)
Aspergillus fumigatus
  MIC: 125 µg/mL (≈ 432 µM)
Aspergillus flavus
  MIC: 62.5 µg/mL (≈ 216 µM)
Candida albicans [8]
  MFC: 31.2 µg/mL (≈ 108 µM)
  MIC: 31.2 µg/mL (≈ 108 µM)
  MIC50: 15.6 µg/mL (≈ 53.9 µM)
  MIC80: 31.2 µg/mL (≈ 108 µM)
Candida albicans [9]
  MFC: 62.5 µg/mL (≈ 216 µM)
  MIC: 15.6 µg/mL (≈ 53.9 µM)
  MIC50: 7.8 µg/mL (≈ 27 µM)
  MIC80: 15.6 µg/mL (≈ 53.9 µM)
Nakaseomyces glabratus
  MFC: 15.6 µg/mL (≈ 53.9 µM)
  MIC: 3.9 µg/mL (≈ 13.5 µM)
  MIC50: 3.9 µg/mL (≈ 13.5 µM)
  MIC80: 3.9 µg/mL (≈ 13.5 µM)
Candida parapsilosis
  MFC: 62.5 µg/mL (≈ 216 µM)
  MIC: 31.2 µg/mL (≈ 108 µM)
  MIC50: 3.9 µg/mL (≈ 13.5 µM)
  MIC80: 31.2 µg/mL (≈ 108 µM)
Clavispora lusitaniae
  MFC: 62.5 µg/mL (≈ 216 µM)
  MIC: 31.2 µg/mL (≈ 108 µM)
  MIC50: 15.6 µg/mL (≈ 53.9 µM)
  MIC80: 31.2 µg/mL (≈ 108 µM)
Torulaspora delbrueckii
  MFC: 62.5 µg/mL (≈ 216 µM)
  MIC: 31.2 µg/mL (≈ 108 µM)
  MIC50: 15.6 µg/mL (≈ 53.9 µM)
  MIC80: 31.2 µg/mL (≈ 108 µM)
Pichia kudriavzevii
  MFC: 31.2 µg/mL (≈ 108 µM)
  MIC: 15.6 µg/mL (≈ 53.9 µM)
  MIC50: 7.8 µg/mL (≈ 27 µM)
  MIC80: 15.6 µg/mL (≈ 53.9 µM)
Kluyveromyces marxianus
  MFC: 15.6 µg/mL (≈ 53.9 µM)
  MIC: 7.8 µg/mL (≈ 27 µM)
  MIC50: 3.9 µg/mL (≈ 13.5 µM)
  MIC80: 7.8 µg/mL (≈ 27 µM)
Candida tropicalis
  MFC: 31.2 µg/mL (≈ 108 µM)
  MIC: 15.6 µg/mL (≈ 53.9 µM)
  MIC50: 7.8 µg/mL (≈ 27 µM)
  MIC80: 15.6 µg/mL (≈ 53.9 µM)
Cryptococcus neoformans [10]
  MFC: 7.8 µg/mL (≈ 27 µM)
  MIC: 3.9 µg/mL (≈ 13.5 µM)
  MIC50: 3.9 µg/mL (≈ 13.5 µM)
  MIC80: 3.9 µg/mL (≈ 13.5 µM)
Cryptococcus neoformans [11]
  MFC: 15.6 µg/mL (≈ 53.9 µM)
  MIC: 7.8 µg/mL (≈ 27 µM)
  MIC50: 1.9 µg/mL (≈ 6.57 µM)
  MIC80: 7.8 µg/mL (≈ 27 µM)
Cryptococcus neoformans [12]
  MFC: 7.8 µg/mL (≈ 27 µM)
  MIC: 7.8 µg/mL (≈ 27 µM)
  MIC50: 1.9 µg/mL (≈ 6.57 µM)
  MIC80: 7.8 µg/mL (≈ 27 µM)
Cryptococcus neoformans [13]
  MFC: 7.8 µg/mL (≈ 27 µM)
  MIC: 7.8 µg/mL (≈ 27 µM)
  MIC50: 1.9 µg/mL (≈ 6.57 µM)
  MIC80: 7.8 µg/mL (≈ 27 µM)
Cryptococcus neoformans [14]
  MFC: 7.8 µg/mL (≈ 27 µM)
  MIC: 7.8 µg/mL (≈ 27 µM)
  MIC50: 1.9 µg/mL (≈ 6.57 µM)
  MIC80: 7.8 µg/mL (≈ 27 µM)
Cryptococcus neoformans [15]
  MFC: 7.8 µg/mL (≈ 27 µM)
  MIC: 7.8 µg/mL (≈ 27 µM)
  MIC50: 3.9 µg/mL (≈ 13.5 µM)
  MIC80: 3.9 µg/mL (≈ 13.5 µM)
Cryptococcus neoformans [16]
  MFC: 7.8 µg/mL (≈ 27 µM)
  MIC: 7.8 µg/mL (≈ 27 µM)
  MIC50: 1.9 µg/mL (≈ 6.57 µM)
  MIC80: 3.9 µg/mL (≈ 13.5 µM)
Cryptococcus neoformans [17]
  MIC: 7.8 µg/mL (≈ 27 µM)
  MIC50: 3.9 µg/mL (≈ 13.5 µM)
  MIC80: 7.8 µg/mL (≈ 27 µM)
  MFC: 15.6 µg/mL (≈ 53.9 µM)
Cryptococcus neoformans [18]
  MFC: 31.2 µg/mL (≈ 108 µM)
  MIC: 7.8 µg/mL (≈ 27 µM)
  MIC50: 7.8 µg/mL (≈ 27 µM)
  MIC80: 7.8 µg/mL (≈ 27 µM)
Cryptococcus neoformans [19]
  MFC: 7.8 µg/mL (≈ 27 µM)
  MIC: 7.8 µg/mL (≈ 27 µM)
  MIC50: 1.9 µg/mL (≈ 6.57 µM)
  MIC80: 3.9 µg/mL (≈ 13.5 µM)
Cryptococcus neoformans [20]
  MFC: 12.5 µg/mL (≈ 43.2 µM)
  MIC: 7.8 µg/mL (≈ 27 µM)
  MIC50: 1.9 µg/mL (≈ 6.57 µM)
  MIC80: 7.8 µg/mL (≈ 27 µM)
Trichophyton benhamiae [21]
  MIC: 1.95 µg/mL (≈ 6.74 µM)
Trichophyton benhamiae [22]
  MIC: 0.97 µg/mL (≈ 3.35 µM)
Trichophyton benhamiae [23]
  MIC: 1.95 µg/mL (≈ 6.74 µM)
Trichophyton benhamiae [24]
  MIC: 1.95 µg/mL (≈ 6.74 µM)
Trichophyton benhamiae [25]
  MIC: 0.97 µg/mL (≈ 3.35 µM)

## Nc1nc(=O)[nH]cc1F [FLUCYTOSINE]
Cryptococcus neoformans [11]
  MFC: 7.8 µg/mL (≈ 60.4 µM)
Cryptococcus neoformans [12]
  MFC: 3.9 µg/mL (≈ 30.2 µM)
Cryptococcus neoformans [13]
  MFC: 3.9 µg/mL (≈ 30.2 µM)
Cryptococcus neoformans [14]
  MFC: 7.8 µg/mL (≈ 60.4 µM)
Cryptococcus neoformans [16]
  MFC: 15.6 µg/mL (≈ 121 µM)
Cryptococcus neoformans [17]
  MFC: 7.8 µg/mL (≈ 60.4 µM)
Cryptococcus neoformans [18]
  MFC: 7.8 µg/mL (≈ 60.4 µM)
Cryptococcus neoformans [19]
  MFC: 3.9 µg/mL (≈ 30.2 µM)
Cryptococcus neoformans [20]
  MFC: 7.8 µg/mL (≈ 60.4 µM)

## O=C1NC(=S)S/C1=C\c1ccc(Br)cc1
Nannizzia gypsea
  MIC: > 250 µg/mL
Trichophyton rubrum
  MIC: > 250 µg/mL
Trichophyton benhamiae [1]
  MIC: > 250 µg/mL
Candida albicans [6]
  MIC: > 250 µg/mL
Saccharomyces cerevisiae
  MIC: 250 µg/mL (≈ 833 µM)
Cryptococcus neoformans [7]
  MIC: 62.5 µg/mL (≈ 208 µM)
Aspergillus niger
  MIC: > 250 µg/mL
Aspergillus fumigatus
  MIC: > 250 µg/mL
Aspergillus flavus
  MIC: > 250 µg/mL

## CCC(C)n1ncn(-c2ccc(N3CCN(c4ccc(OCC5COC(Cn6cncn6)(c6ccc(Cl)cc6Cl)O5)cc4)CC3)cc2)c1=O (centres undefined) [ITRACONAZOLE]
Cryptococcus neoformans [10]
  MFC: 0.15 µg/mL (≈ 0.213 µM)
Cryptococcus neoformans [11]
  MFC: < 0.015 µg/mL
Cryptococcus neoformans [12]
  MFC: 0.25 µg/mL (≈ 0.354 µM)
Cryptococcus neoformans [13]
  MFC: < 0.015 µg/mL
Cryptococcus neoformans [14]
  MFC: < 0.015 µg/mL
Cryptococcus neoformans [15]
  MFC: < 0.015 µg/mL
Cryptococcus neoformans [16]
  MFC: < 0.015 µg/mL
Cryptococcus neoformans [17]
  MFC: 0.25 µg/mL (≈ 0.354 µM)
Cryptococcus neoformans [18]
  MFC: 0.5 µg/mL (≈ 0.709 µM)
Cryptococcus neoformans [19]
  MFC: < 0.015 µg/mL
Cryptococcus neoformans [20]
  MFC: < 0.015 µg/mL
